Laboratory results: patent publication US20210009557A1, “ACYCLIC CXCR4 INHIBITORS AND USES THEREOF” (X4 Pharmaceuticals, Inc., priority 2017, published 2021)

Experiments:
[1] = in vitro; conditions: human, Caco-2, pH 7.4
Protocol: The goal of this assay was to evaluate the intestinal absorption potential of drug candidates using Caco-2 cell lines.
Experimental Procedure • 1. Pre-warm Pre-warm HBSS Buffer in 37° C. water bath • 2. Sonicate Take compounds from −20° C., sonicate for a few minutes (no less than 1 minute) • 3. Solution preparation
For A-to-B Direction: • HBSS buffer with 0.3% DMSO and 5 μM LY: add 150 μL DMSO and 50 μL LY (5 mM) into 50 ml HBSS buffer (pH 7.4). • HBSS buffer with 0.1% DMSO and 5 μM LY: add 50 μL DMSO and 50 μL LY (5 mM) into 50 mL HBSS buffer (pH 7.4).
For B-to-A Direction: • HBSS buffer with 0.3% DMSO: add 150 μL DMSO into 50 ml HBSS buffer (pH 7.4). HBSS buffer with 0.1% DMSO: add 50 μL DMSO into 50 ml HBSS buffer (pH 7.4).
For A-to-B Direction: • Prepare HBSS buffer with 0.4% DMSO: add 200 μL DMSO into 50 ml HBSS buffer (pH 7.4).
For B-to-A Direction: • Prepare HBSS buffer with 0.4% DMSO and 5 μM LY: add 200 μL DMSO and 50 μL LY (5 mM) into 50 ml HBSS buffer (pH 7.4).
• 4. Measure TEER Take cell culture plate out of incubator, wash the cell monolayers with HBSS buffer, and then measure TEER values at Rm temperature. • 5. Centrifuge Centrifuge the compound solution (from step 3) at 4000 rpm for 5 min before loading to donor chambers. • 6. Dosing Add solution based on the volumes listed in the following table (make sure to take extra 100 μL of donor sample for T0 as Backup).
• 7. Apical LYTO samples To determine LY concentration in the apical chamber, take 100 μL sample from apical chambers into an opaque plate for LYTO. • 8. Pre-warm Pre-warm apical and basolateral plates at 37° C. for about 5 min, then begin transport by placing the apical plate onto basolateral plate. • 9. Incubation Keep the plates in incubator at 37° C. for 90 min. • 10.
• Prepare 1× solution: • 3 μL (20×)+57 μL of 0.4% DMSO HBSS+60 μL ACN with IS (Osalmid or Imipramine)—120 μL (1×) • 11. Transport termination Separate the apical plate from the basolateral plate after 90-min incubation. • 12. Measure LY Take 100 μL samples from basolateral plate to an opaque plate as LYT90. • 13. Measure LY concentrations for LYTO and LYT90 by Fluorometer (at excitation of 485 nm/emission of 535 nm). • 14.
Drug permeability: Papp=(VA/(Area×time))×([drug]accepter/(([drug]initial, donor)×Dilution Factor) • Where VA is the volume in the acceptor well, area is the surface area of the membrane and time is the total transport time in seconds.
For Millicell-24 Cell Culture Plates: surface area of the membrane=0.7 cm^2, VA=0.8 mL (A-to-B) or 0.4 mL (B-to-A)

[2] = target: T1, CXCR-4 transfected U87 cell line (U87.CXCR4) (Homo sapiens, UniProt P61073); assay: Intracellular CXCL-12-induced calcium mobilization assay (FLIPR); format: cell-based; conditions: U87.CXCR4 cells; CXCL-12 25-50 ng/mL; compounds added 15 minutes before; read-out: IC50 CXCL-12 Ca2+ flux U87.CXCR4+
T1 construct: expressed in transfected cells; host or cells: U87 cell line (U87.CXCR4)
Protocol: Intracellular calcium mobilization induced by chemokines orchemokine-derived peptides were evaluated using a calcium responsive fluorescent probe and a FLIPR system. The CXCR-4 transfected U87 cell line (U87.CXCR4) cells were seeded in gelatine-coated black-wall 96-well plates at 20,000 cells per well and incubated for 12 hours. Cells were then loaded with the fluorescent calcium probe Fluo-2 acetoxymethyl at 4 μM final concentration in assay buffer (Hanks' balanced salt solution with 20 mM HEPES buffer and 0.2% bovine serum albumin, pH 7.4) for 45 min at 37′C. The intracellular calcium mobilization induced by the CXCL-12 (25-50 ng/mL) was then measured at 37° C. by monitoring the fluorescence as a function of time in all the wells simultaneously using a fluorometric imaging plate reader (FLIPR Tetra, Molecular Devices).

[3] = target: T2, Jurkat cells expressing CXCR4 (Homo sapiens, UniProt P61073); assay: Chemokine (CXCL12-AF647) binding inhibition assay; conditions: CXCL12-AF647 25 ng/mL, read-out: IC50 CXCL-12 binding Jurkat
T2 construct: Jurkat cells expressing CXCR4; endogenous in cells; host or cells: Jurkat cells
Protocol: Jurkat cells expressing CXCR4 were washed once with assay buffer (Hanks' balanced salt solution with 20 mM HEPES buffer and 0.2% bovine serum albumin, pH 7.4) and then incubated for 15 min at room temperature with the test compounds diluted in assay buffer at dose-dependent concentrations. Subsequently, CXCL12-AF647 (25 ng/mL) was added to the compound-incubated cells. The cells were incubated for 30 min at room temperature. Thereafter, the cells were washed twice in assay buffer, fixed in 1% paraformaldehyde in PBS, and analyzed on the FL4 channel of a FACSCalibur flow cytometer equipped with a 635-nm red diode laser (Becton Dickinson, San Jose, Calif., USA).
The percentages of inhibition of CXCL12-AF647 binding were calculated according to the formula: [1−((MFI−MFINC)/(MFIPC−MFINC))]×100 where MFI is the mean fluorescence intensity of the cells incubated with CXCL12-AF647 in the presence of the inhibitor, MFINC is the mean fluorescence intensity measured in the negative control (i.e., autofluorescence of unlabeled cells), and MFIPC is the mean fluorescence intensity of the positive control (i.e., cells exposed to CXCL12-AF647 alone).

T1 sequence (P61073 whole entry): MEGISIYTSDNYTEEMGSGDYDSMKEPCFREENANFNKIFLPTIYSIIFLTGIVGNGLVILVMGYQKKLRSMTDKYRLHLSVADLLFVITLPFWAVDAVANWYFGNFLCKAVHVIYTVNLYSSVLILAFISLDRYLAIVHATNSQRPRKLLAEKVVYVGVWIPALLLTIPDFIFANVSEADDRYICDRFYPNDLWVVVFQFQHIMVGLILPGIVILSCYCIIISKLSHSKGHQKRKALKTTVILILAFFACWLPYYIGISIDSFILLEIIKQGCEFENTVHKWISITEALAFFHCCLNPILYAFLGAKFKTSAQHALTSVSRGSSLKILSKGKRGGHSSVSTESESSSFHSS
T2 sequence (P61073 whole entry): as above

| Compound | Papp A→B at 90 min, 10 μM [1] [×10⁻⁶ cm/s] | Papp B→A at 90 min, 10 μM [1] [×10⁻⁶ cm/s] | efflux ratio at 90 min, 10 μM [1] | IC50 [2] [nM] | IC50 [3] [nM] |
| --- | --- | --- | --- | --- | --- |
| c1cnc2c(c1)CCC[C@@H]2N(CCC1CCCCO1)Cc1nc2ccccc2[nH]1 (stereo partly drawn) [Compound I-16] | > 10 | > 10 | 0.1 to 10 | ≥ 1000 | 100 to 1000 |
| CC(c1ccccn1)N(CCc1cnc[nH]1)Cc1nc2ccccc2[nH]1 (stereo not drawn) [Compound I-7, N-((1H-benzo[d]imidazol-2-yl)methyl)-N-(2-(1H-imidazol-5-yl)ethyl)-1-(pyridin-2-yl)ethan-1-amine] | < 5 | > 10 | > 30 | ≥ 1000 | 0.01 to 100 |
| CC(c1ccccn1)N(CCC(N)=O)Cc1nc2ccccc2[nH]1 (stereo not drawn) [Compound I-12, 3-(((1H-benzo[d]imidazol-2-yl)methyl)(1-(pyridin-2-yl)ethyl)amino)propanamide] | < 5 | > 10 | > 30 | ≥ 1000 | 100 to 1000 |
| Cc1cccnc1CN(CCc1cnc[nH]1)C(C)c1ccccn1 (stereo not drawn) [Compound I-8] | < 5 | > 10 | 10 to 30 | ≥ 1000 | 0.01 to 100 |
| OCCN(Cc1nc2ccccc2[nH]1)[C@H]1CCCc2cccnc21 [Compound I-55] | > 10 | > 10 | 0.1 to 10 | ≥ 1000 | 100 to 1000 |
| Cc1cccnc1CN(CCC(N)=O)Cc1ncccc1C [Compound I-14, 3-(Bis((3-methylpyridin-2-yl)methyl)amino)propanamide] | > 10 | > 10 | 0.1 to 10 | ≥ 1000 | 100 to 1000 |
| NC(=O)CCN(Cc1ncccc1Cl)[C@H]1CCCc2cccnc21 [Compound I-24] | > 10 | > 10 | 0.1 to 10 | ≥ 1000 | 0.01 to 100 |
| Cc1cccnc1CN(CCc1c[nH]cn1)Cc1nccs1 [Compound I-52] | 5 to 10 | > 10 | 0.1 to 10 | ≥ 1000 | 100 to 1000 |

Other lines, results leading:

| Papp A→B at 90 min, 10 μM [1] [×10⁻⁶ cm/s] | Papp B→A at 90 min, 10 μM [1] [×10⁻⁶ cm/s] | efflux ratio at 90 min, 10 μM [1] | IC50 [2] [nM] | IC50 [3] [nM] | Compound |
| --- | --- | --- | --- | --- | --- |
| > 10 | > 10 | 0.1 to 10 | ≥ 1000 | 0.01 to 100 | Clc1cccnc1CN(CCc1cnc[nH]1)Cc1ncccc1-c1ccccc1 [Compound I-39] |
| 5 to 10 | > 10 | 0.1 to 10 | 100 to 1000 | 0.01 to 100 | NC(=O)CCN(Cc1nccc2ccccc12)[C@H]1CCCc2cccnc21 [Compound I-49] |
| < 5 | > 10 | 0.1 to 10 | 100 to 1000 | 0.01 to 100 | Cc1cccnc1CN(CCc1cnc[nH]1)Cc1ncccc1-c1ccccc1 [Compound I-57] |
| > 10 | > 10 | 0.1 to 10 | 100 to 1000 | 0.01 to 100 | Clc1cccnc1CN(CCc1cnc[nH]1)Cc1ncccc1Cl [Compound I-28] |
| 5 to 10 | > 10 | 0.1 to 10 | 100 to 1000 | 0.01 to 100 | Cc1cccnc1CN(CCc1cnc[nH]1)Cc1ncccc1Cl [Compound I-10] |
| 5 to 10 | > 10 | 0.1 to 10 | 0.01 to 100 | 0.01 to 100 | Cc1cccnc1CN(CCc1c[nH]cn1)Cc1nc2c(F)cccc2n1C [Compound I-43, N-((4-fluoro-1-methyl-1H-benzo[d]imidazol-2-yl)methyl)-2-(1H-imidazol-4-yl)-N-((3-methylpyridin-2-yl)methyl)ethan-1-amine] |
| > 10 | > 10 | 0.1 to 10 | 100 to 1000 | 0.01 to 100 | Cc1cccnc1CN(CCc1ccccn1)C(C)c1ccccn1 (stereo not drawn) [Compound I-3] |
